Test results published in paper PMC10305148, “In Vitro Characterization and Antiviral Susceptibility of Ophidian Serpentoviruses” (Microorganisms, 2023).
≈ marks a conversion by molar mass, not a printed value. Read-outs that look alike come from different tables or passages of the source.

How the values were obtained:
[1] = test system: pathogenic herpesvirus isolated from tortoises; set-up: method as in PMID 9323927; settings: doses of 25 or 50 µg/mL, turtle heart cell cultures; cited from earlier work
GTSV [2] = test: CPE reduction assay in DPHt cells; type: cell-based, Green tree python serpentovirus; settings: average ± SD; for EC50: read-out: EC50 (50% effective concentration, CPE reduction assay)
Source text: (§1) Ribavirin was obtained from ICN Pharmaceuticals, Inc. (now Bausch Health, Laval, QC, Canada). Favipiravir was purchased from AdooQ Bioscience (Irvine, CA, USA). NITD-008 was supplied by BEI Resources (Manassas, VA, USA). Enviroximine was purchased from Cayman Chemical (Ann Arbor, MI, USA), and pirodavir was purchased from Med Chem Express (Monmouth Junction, NJ, USA). Infergen (Interferon-alfacon-1), a human consensus interferon, was provided by InterMune, Inc (Brisbane, CA, USA) as an aqueous solution. Solid compounds were dissolved in DMSO at a 20× concentration to yield a final DMSO concentration of <10%. Further dilutions were performed in culture media.
(§2) Diamond python heart cells (DPHt) were grown as described above. Cells were plated in 96-well microtiter plates and grown overnight prior to the addition of the virus and test compounds. A CPE assay was conducted to determine the activity of various antiviral against BPNV, GTSV, and AnPSN. Serial half-log dilutions of the test compounds were made and added to 5 wells of the 96-well plate. Culture media was added to two wells to determine the 50% cytotoxic concentration (CC50), and the virus was added to the other three wells to determine the 50% effective concentrations (EC50). Virus and cell controls were included with each plate. The selective index was determined by dividing the CC50 by the EC50/90 to determine the SI50/90. Two to three replicates of the assays were used to evaluate each compound.

AnPSV [3] = test: CPE reduction assay in DPHt cells; type: cell-based, Antaresian python serpentovirus; settings: average ± SD; for EC50: read-out: EC50 (50% effective concentration, CPE reduction assay)
Source text: as §1, §2

BPNV [4] = test: CPE reduction assay in DPHt cells; type: cell-based, Ball python nidovirus; settings: average ± SD; for EC50: Ball python nidovirus, read-out: EC50 (50% effective concentration, CPE reduction assay)
Source text: as §1, §2

[5] = test system: Diamond python heart cells (DPHt); test: Cytotoxicity in uninfected wells of the CPE assay; type: cell-based, Diamond python (Morelia spilota spilota)
Description: as §2, with “compound. A confirmatory virus yield reduction (VYR) assay was conducted where supernatant from the CPE assay was collected and titered on DPHt cells to determine the 90% effective concentration (EC90), or the concentration of compound required to reduce the virus titer by one Log10.” for “compound.”

[6] = Cytotoxicity in uninfected wells of the CPE assay; type: cell-based, Diamond python (Morelia spilota spilota); settings: Diamond python (Morelia spilota spilota), CC50 (50% cytotoxic concentration)
Description: as §2, with “compound. A confirmatory virus yield reduction (VYR) assay was conducted where supernatant from the CPE assay was collected and titered on DPHt cells to determine the 90% effective concentration (EC90), or the concentration of compound required to reduce the virus titer by one Log10.” for “compound.”

GTSV [7] = test: Virus yield reduction (VYR) assay, supernatant titered on DPHt cells; type: cell-based, Green tree python serpentovirus; settings: for EC90: read-out: EC90 (90% effective concentration, virus yield reduction assay)
BPNV [8] = test: as above; type: cell-based, Ball python nidovirus; settings: for EC90: Ball python nidovirus, read-out: EC90 (90% effective concentration, virus yield reduction assay)
Dengue virus = test system: Dengue virus; set-up: method as in PMID 19918064; settings: animal models; cited from earlier work
[9] = set-up: method as in PMID 19918064; settings: dogs; development ceased; cited from earlier work
AnPNV, BPNV, and GTSV = test: CPE reduction assay, summary for all three serpentoviruses; type: cell-based, Ophidian serpentoviruses
Source text: as §1
as §2, with “compound. A confirmatory virus yield reduction (VYR) assay was conducted where supernatant from the CPE assay was collected and titered on DPHt cells to determine the 90% effective concentration (EC90), or the concentration of compound required to reduce the virus titer by one Log10.” for “compound.”

[10] = set-up: method as in PMID 19918064; settings: rats; development ceased; cited from earlier work
AnPSV [11] = test: Virus yield reduction (VYR) assay, supernatant titered on DPHt cells; type: cell-based, Antaresian python serpentovirus; settings: for EC90: read-out: EC90 (90% effective concentration, virus yield reduction assay)
[12] = set-up: method as in PMID 17168855; settings: long-term treatment; cited from earlier work
[13] = Diamond python (Morelia spilota spilota)

| Compound | EC50 (50% effective concentration, CPE reduction assay) (GTSV [2]) | EC50 (50% effective concentration, CPE reduction assay) (AnPSV [3]) | EC50 (50% effective concentration, CPE reduction assay) (BPNV [4]) | CC50 (50% cytotoxic concentration) [5, 13] | CC50 [6] | EC50 (GTSV [2]) | EC50 (AnPSV [3]) | EC50 (BPNV [4]) | antiviral activity (in words) (AnPNV, BPNV, and GTSV) | other results |
| --- | --- | --- | --- | --- | --- | --- | --- | --- | --- | --- |
| Nc1nc2c(ncn2COCCO)c(=O)[nH]1 [Acyclovir] |  |  |  |  |  |  |  |  |  | activity (in words) [1]: active |
| CC(C)S(=O)(=O)n1c(N)nc2ccc(/C(=N/O)c3ccccc3)cc21 [Enviroximine] | >4.9 µg/mL | >0.24 µg/mL | >0.38 µg/mL |  |  |  |  |  |  |  |
| NC(=O)c1nc(F)c[nH]c1=O [Favipiravir] |  |  |  | >320 µg/mL | > 320 µg/mL | > 320 µg/mL | > 320 µg/mL | > 320 µg/mL |  |  |
| C#C[C@@]1(O)[C@H](O)[C@@H](CO)O[C@H]1n1ccc2c(N)ncnc21 [NITD-008] | 1.4 ± 0.8 µg/mL (≈ 4.82 µM) | 0.6 ± 0.3 µg/mL (≈ 2.07 µM) | 0.7 ± 0.4 µg/mL (≈ 2.41 µM) |  |  |  |  |  | potent antiviral activity | EC90 (90% effective concentration, virus yield reduction assay) (GTSV [7]): 4.8 µg/mL (≈ 16.5 µM); EC90 (90% effective concentration, virus yield reduction assay) (BPNV [8]): 1.5 µg/mL (≈ 5.17 µM); CC50 (50% cytotoxic concentration) ([5]; DPHt cells, table line of AnPSV): 33 ± 9.0 µg/mL (≈ 114 µM); CC50 (50% cytotoxic concentration) ([5]; DPHt cells, table line of BPNV): 37 ± 26 µg/mL (≈ 127 µM); CC50 (50% cytotoxic concentration) ([5]; DPHt cells, table line of GTSV): 55 ± 42 µg/mL (≈ 189 µM); efficacy (in words) (Dengue virus): showed promise; toxicity (in words) [9]: toxicity was observed; toxicity (in words) [10]: toxicity was observed; EC90 (90% effective concentration, virus yield reduction assay) (AnPSV [11]): 0.76 µg/mL (≈ 2.62 µM) |
| CCOC(=O)c1ccc(OCCC2CCN(c3ccc(C)nn3)CC2)cc1 [Pirodavir, pirodavir] |  |  |  | >10 µg/mL | 7.3 µg/mL (≈ 19.8 µM) | 0.86 µg/mL (≈ 2.33 µM) | 1.1 µg/mL (≈ 2.98 µM) | 2.6 µg/mL (≈ 7.04 µM) |  |  |
| CCC(CC)COC(=O)[C@H](C)N[P@](=O)(OC[C@H]1O[C@@](C#N)(c2ccc3c(N)ncnn23)[C@H](O)[C@@H]1O)Oc1ccccc1 [Remdesivir] |  |  |  | 2.3 ± 1.8 µg/mL (≈ 3.82 µM) | 2.2 ± 1.6 µg/mL (≈ 3.65 µM) | < 0.022 µg/mL | < 0.022 µg/mL | < 0.022 µg/mL | potent antiviral activity | EC90 (GTSV [7]): < 0.001 µg/mL; EC90 (BPNV [8]): < 0.001 µg/mL; EC90 (AnPSV [11]): < 0.001 µg/mL |
| NC(=O)c1ncn([C@@H]2O[C@H](CO)[C@@H](O)[C@H]2O)n1 [Ribavirin] |  |  |  | >1000 µg/mL | > 1000 µg/mL | 7.9 ± 3 µg/mL (≈ 32.3 µM) | 2 ± 0.3 µg/mL (≈ 8.19 µM) | 0.9 ± 0.2 µg/mL (≈ 3.69 µM) | potent antiviral activity | EC90 (GTSV [7]; GTSV, concentration reducing virus titer by one Log10): 14 µg/mL (≈ 57.3 µM); adverse effect (in words) [12]: associated with anemia; EC90 (BPNV [8]; BPNV, concentration reducing virus titer by one Log10): 1.6 µg/mL (≈ 6.55 µM); EC90 (AnPSV [11]; AnPSV, concentration reducing virus titer by one Log10): 12 µg/mL (≈ 49.1 µM) |
| Nc1nc(O)c2ncn(COC(CO)CO)c2n1 [ganciclovir] |  |  |  |  |  |  |  |  |  | activity (in words) [1]: active |
| Interferon-alfacon-1 [Infergen] | >0.01 µg/mL | >0.01 µg/mL | >0.01 µg/mL |  |  |  |  |  |  | CC50 (50% cytotoxic concentration) [5]: 0.01 µg/mL |
